Read-outs that look alike come from different tables or passages of the source.
How the values were obtained:
[1] = in vivo
[2] = cited from earlier work
[3] = Evaluation of various buffering systems on human skin; details: sensitive, healthy or eczema affected skin

Row | Structure (SMILES) | skin irritation / tolerability [1] | further results
1 | O=C(O)CC(O)(CC(=O)O)C(=O)O [Citric acid] | well tolerated on healthy and eczema affected skin | 
2 | O=C(O)[C@H](O)[C@@H](O)[C@H](O)[C@H](O)CO [Gluconic acid] | well tolerated on healthy and eczema affected skin | 
3 | N[C@@H](CC(=O)O)C(=O)O [aspartic acid] |  | pKa [2]: around 3.65
4 | O=C(O)CO [glycolic acid] |  | skin irritation / tolerability [3]: may be irritating for sensitive skin
5 | CC(O)C(=O)O (centres unmarked) [lactic acid] | may be irritating for sensitive skin | 

— patent US12616669B2, “Methods and chemical compositions for treating skin conditions by providing long lasting skin pH control for improving skin barrier function” (Soteri Skin, Inc., priority 2021, dated 2026)
